From patent US20190030114A1, “ISOFORM-SPECIFIC CALPAIN INHIBITORS, METHODS OF IDENTIFICATION, AND USES THEREOF” (WESTERN UNIVERSITY OF HEALTH SCIENCES, priority 2014, published 2019)

How the values were obtained:
[1] = tested on: cultured cortical neurons; experiment: Bic- and 4-AP-induced neuroprotection against starvation, Hoechst staining; format: cell-based; details: mCalp-I 200 nM
Description: Neuronal death was observed and quantified by Hoechst staining. 300-500 neurons were counted for each group in three to 6 independent experiments. *p<0.05; ns, no significant difference; one-way ANOVA followed by Bonferroni test. n=3-6. Error Bar indicates SEM
Neuronal death was observed and quantified by Hoechst staining. 300-500 neurons were counted for each group in three to 6 independent experiments. *p<0.05; ns, no significant difference; one-way ANOVA followed by Bonferroni test. n=3-6. Error Bar indicates SEM (FIG. 6).

[2] = tested on: SBDP; experiment: SBDP formation in IPL after acute IOP elevation, intravitreal C2l in calpain-1 KO mice; format: in vivo; details: Mus musculus, intravitreal (1 μl) 2 h after IOP elevation, SBDP at 4 h, read-out: apparent IC50, inhibition of SBDP formation in IPL
Method: We used intravitreal C2l injection in order to locally deliver C2l to retina. First, we tested the delivery efficiency by injecting different doses of C2l intravitreally 2 h after IOP elevation in calpain-1 KO mice and analyzing SBDP levels in IPL at 4 h (FIG. 12A and B). […] In all subsequent experiments, 20 μM (1 μl) was used to examine the neuroprotective effects of intravitreal C2l injection. Eyes were collected 3 days after surgery for H&E staining.

[3] = target: T1, calpain-1 (Homo sapiens, UniProt P07384); details: Li et al, 1996; read-out: Ki for calpain-1 (μ-calpain), literature; cited from earlier work
T1 sequence (P07384 1-714): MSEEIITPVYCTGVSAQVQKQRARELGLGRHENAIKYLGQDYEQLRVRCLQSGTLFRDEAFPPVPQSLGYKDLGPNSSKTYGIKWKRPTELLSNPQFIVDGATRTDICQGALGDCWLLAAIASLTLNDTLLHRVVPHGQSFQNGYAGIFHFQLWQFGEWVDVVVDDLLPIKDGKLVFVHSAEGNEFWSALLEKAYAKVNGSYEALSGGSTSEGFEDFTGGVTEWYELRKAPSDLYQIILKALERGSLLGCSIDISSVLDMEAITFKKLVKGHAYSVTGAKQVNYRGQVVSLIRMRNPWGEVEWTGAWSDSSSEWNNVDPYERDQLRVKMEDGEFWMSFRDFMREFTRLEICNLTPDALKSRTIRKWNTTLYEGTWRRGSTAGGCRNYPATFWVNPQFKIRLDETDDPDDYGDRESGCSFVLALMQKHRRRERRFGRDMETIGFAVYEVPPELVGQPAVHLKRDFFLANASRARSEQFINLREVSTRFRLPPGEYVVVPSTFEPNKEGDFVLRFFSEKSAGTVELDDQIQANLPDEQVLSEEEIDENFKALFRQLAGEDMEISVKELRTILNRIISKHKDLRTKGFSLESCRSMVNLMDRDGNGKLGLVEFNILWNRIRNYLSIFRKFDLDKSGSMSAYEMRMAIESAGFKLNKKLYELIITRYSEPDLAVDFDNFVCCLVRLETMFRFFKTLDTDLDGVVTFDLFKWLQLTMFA
T1 sequence (P04632 1-268 partner): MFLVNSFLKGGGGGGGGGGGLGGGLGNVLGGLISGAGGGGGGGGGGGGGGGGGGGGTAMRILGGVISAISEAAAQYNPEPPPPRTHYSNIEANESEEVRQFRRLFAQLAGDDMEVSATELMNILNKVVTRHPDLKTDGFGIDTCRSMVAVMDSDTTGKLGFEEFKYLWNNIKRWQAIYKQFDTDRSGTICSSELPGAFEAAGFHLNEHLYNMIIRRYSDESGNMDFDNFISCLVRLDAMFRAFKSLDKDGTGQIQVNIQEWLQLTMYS

Q: With `CCC(NC(=O)C(CC(C)C)NC(=O)OCc1ccccc1)C(=O)C(=O)NCc1cc(OC)cc(OC)c1` (racemic) [Formula 1, Z-Leu-Abu-CONH—CH2-C6H3 (3, 5-(OMe)2)] as the compound, how does the “blocked Bic- and 4-AP-induced neuroprotection against starvation” value [1] read?
A: Its value is “not”.

Q: And the IC50 [2]?
A: Its IC50 is 8 µM.

Q: And the Ki [3]?
A: Its Ki is 2.3 µM.
